Measurements published in publication PMC11881016, “Deep‐Learning‐Based Approaches for Rational Design of Stapled Peptides With High Antimicrobial Activity and Stability” (Microbial Biotechnology, 2025).
Values after ≈ are worked out from the molar mass of the structure shown. *1 amine or outer side, *2 acyl side, *3 side chain or, on linkers, in order; H or OH if unused. Where a SMILES comes first, the peptide text is derived from it. Bridges are numbered along the chain shown (N, C = ends). Where no end group is shown, it is not given here. [ ]: non-standard residue; d: D form. X1 = O=C([C@H](CCCCNCC=[*:3])N[*:1])[*:2]

Experiments:
[1] = test system: Escherichia coli (E. coli, ATCC25922); format: cell-based
Experimental: (§1) Escherichia coli ( E. coli , ATCC25922), Klebsiella pneumoniae ( K. pneumoniae , ATCC10031), Staphylococcus aureus ( S. aureus , ATCC6538P), Pseudomonas aeruginosa ( P. aeruginosa , ATCC27853) and methicillin‐resistant Staphylococcus aureus (MRSA) were used to evaluate the antimicrobial activity of the peptides and were purchased from BeNa Culture Collection.
(§2) The MICs of the peptides in vitro were determined using the broth microdilution method with minor modifications (Wiegand et al. [2008]). Peptides were incubated with bacteria (about 5 × 10^5 CFU/mL), and PBS was used as the negative control. After 18–24 h of incubation at 37°C, the bacteria were checked for growth by recording the values at OD600, with three replicates in each group.

[2] = test system: Klebsiella pneumoniae (K. pneumoniae, ATCC10031); format: cell-based; conditions: for MIC K. pneumoniae: ATCC10031; for increase of antimicrobial activity against K. pneumoniae: stapled peptide compared to its linear peptide
Experimental: as §1, §2

[3] = test system: Pseudomonas aeruginosa (P. aeruginosa, ATCC27853); format: cell-based
Experimental: as §1, §2

[4] = test system: Staphylococcus aureus (S. aureus, ATCC6538P); format: cell-based; conditions: for MIC S. aureus: ATCC6538; for increase of antimicrobial activity against S. aureus: stapled peptide compared to its linear peptide
Experimental: as §1, §2

[5] = test system: methicillin‐resistant Staphylococcus aureus (MRSA); format: cell-based; conditions: for MIC MRSA: methicillin‐resistant; for increase of antibacterial activity against MRSA: stapled peptide compared to its linear peptide
Experimental: as §1, §2

[6] = test system: any bacteria; experiment: Wet experiment result (antimicrobial activity of the synthesised peptides, positive/negative); format: cell-based; conditions: experiment data set (Supplement S12)
Text: Supplement MBT2-18-e70121-s002.doc, table 9 | column: Wet Exp. Result

[7] = test system: gram‐positive and gram‐negative bacteria; conditions: external independent data set; ref Hu et al. ([2022]); cited from earlier work
Text: TABLE 3 Prediction results of external independent data set using 10 models. | column: Result ^a

Compound	MIC E. coli [1]	MIC K. pneumoniae [2]	MIC P. aeruginosa [3]	MIC S. aureus [4]	MIC MRSA [5]	Result (stapled AMP with high antimicrobial activity in the experiment) [7]	also measured
CC[C@H](C)[C@H](NC(=O)[C@@H](N)CCCNC(=N)N)C(=O)N[C@@H](CC(C)C)C(=O)N[C@@H](CCCNC(=N)N)C(=O)N[C@@H](CCCCN)C(=O)N[C@@H](CC(C)C)C(=O)N[C@@H](CCCNC(=N)N)C(=O)N[C@H]1CCCCNC/C=C/CNCCCC[C@@H](C(=O)O)NC(=O)[C@H](CC(C)C)NC(=O)[C@H](Cc2ccccc2)NC(=O)[C@H](CCCCN)NC1=O [GAN‐P2‐2‐St] (H-RILRKLR[X1]KFL[X1]-OH; staple (E) 8-12)	16 µg/mL (≈ 9.69 µM)	1 µg/mL (≈ 0.606 µM)	32 µg/mL (≈ 19.4 µM)	2 µg/mL (≈ 1.21 µM)	8 µg/mL (≈ 4.85 µM)	–	increase of antimicrobial activity against K. pneumoniae [2]: 2–4 fold; increase of antimicrobial activity against S. aureus [4]: 4 fold; increase of antibacterial activity against MRSA [5]: 16 fold; Wet Exp. Result [6]: Positive
CC[C@H](C)[C@H](NC(=O)[C@@H](N)CCCNC(=N)N)C(=O)N[C@@H](CC(C)C)C(=O)N[C@@H](CCCNC(=N)N)C(=O)N[C@@H](CCCCN)C(=O)N[C@@H](CC(C)C)C(=O)N[C@@H](CCCCN)C(=O)N[C@H]1CCCCNC/C=C/CNCCCC[C@@H](C(=O)O)NC(=O)[C@H](CC(C)C)NC(=O)[C@H](Cc2ccccc2)NC(=O)[C@H](CCCNC(=N)N)NC1=O [GAN‐P2‐3‐St] (H-RILRKLK[X1]RFL[X1]-OH; staple (E) 8-12)	16 µg/mL (≈ 9.69 µM)	1 µg/mL (≈ 0.606 µM)	32 µg/mL (≈ 19.4 µM)	2 µg/mL (≈ 1.21 µM)	8 µg/mL (≈ 4.85 µM)	–	increase of antimicrobial activity against K. pneumoniae [2]: 2–4 fold; increase of antimicrobial activity against S. aureus [4]: 4 fold; increase of antibacterial activity against MRSA [5]: 16 fold; Wet Exp. Result [6]: Positive
CC[C@H](C)[C@H](NC(=O)CN)C(=O)NCC(=O)N[C@@H](CCCCN)C(=O)N[C@@H](Cc1ccccc1)C(=O)N[C@@H](CC(C)C)C(=O)N[C@@H](Cc1c[nH]cn1)C(=O)N[C@@H](CO)C(=O)N[C@@H](C)C(=O)N[C@@H](CCCCN)C(=O)N[C@@H](CCCCN)C(=O)N[C@@H](Cc1ccccc1)C(=O)NCC(=O)N[C@@H](CCCCN)C(=O)N[C@H]1CSSC[C@@H](C(=O)N[C@H](C(=O)N[C@@H](CC(C)C)C(=O)N[C@@H](CC(N)=O)C(=O)N[C@@H](CO)C(=O)O)[C@@H](C)CC)NC(=O)CNC(=O)[C@H](C(C)C)NC(=O)[C@H](Cc2ccccc2)NC1=O [Mag2(i + 4)14Dc] (H-GIGKFLHSAKKFGKCFVGCILNS-OH; disulfide 15-19)	64 µg/mL	32 µg/mL	64 µg/mL	16 µg/mL	–	–	–
CC[C@H](C)[C@H](NC(=O)CN)C(=O)NCC(=O)N[C@@H](CCCCN)C(=O)N[C@@H](Cc1ccccc1)C(=O)N[C@@H](CC(C)C)C(=O)N[C@@H](Cc1c[nH]cn1)C(=O)N[C@@H](CO)C(=O)N[C@@H](C)C(=O)N[C@@H](CCCCN)C(=O)N[C@@H](CCCCN)C(=O)N[C@@H](Cc1ccccc1)C(=O)NCC(=O)N[C@@H](CCCCN)C(=O)N[C@@H](C)C(=O)N[C@H]1CSSC[C@@H](C(=O)N[C@@H](CC(C)C)C(=O)N[C@@H](CC(N)=O)C(=O)N[C@@H](CO)C(=O)O)NC(=O)[C@H](CCC(=O)O)NC(=O)CNC(=O)[C@H](C(C)C)NC1=O [Mag2(i + 4)15Dc] (H-GIGKFLHSAKKFGKACVGECLNS-OH; disulfide 16-20)	512 µg/mL	256 µg/mL	> 512 µg/mL	> 512 µg/mL	–	–	–
FFGKVLⓀLIRⓀIF‐NH2 (sidechain bridge or staple) [LS‐DAS, lysine‐stapled AMP of the external independent data set from Hu et al. ([2022])]	–	–	–	–	–	Positive	–
FFGSVLⓀLIPⓀIL‐NH2 (sidechain bridge or staple) [LS‐PTa, lysine‐stapled AMP of the external independent data set from Hu et al. ([2022])]	–	–	–	–	–	Positive	–
GFKDLLKGAAⓀALVⓀTVLF‐NH2 (sidechain bridge or staple) [LS‐AP1, lysine‐stapled AMP of the external independent data set from Hu et al. ([2022])]	–	–	–	–	–	Positive	–
GFKDLLⓀGAAⓀALVKTVLF‐NH2 (sidechain bridge or staple) [LS‐AP2, lysine‐stapled AMP of the external independent data set from Hu et al. ([2022])]	–	–	–	–	–	Positive	–
GFⓀDLLⓀGAAKALVKTVLF‐NH2 (sidechain bridge or staple) [LS‐AP3, lysine‐stapled AMP of the external independent data set from Hu et al. ([2022])]	–	–	–	–	–	Positive	–
PKINLⓀILGⓀILRLAAAFK‐NH2 (sidechain bridge or staple) [LS‐PaD1, lysine‐stapled AMP of the external independent data set from Hu et al. ([2022])]	–	–	–	–	–	Positive	–
PⓀINLⓀILGKILRLAAAFK‐NH2 (sidechain bridge or staple) [LS‐PaD2, lysine‐stapled AMP of the external independent data set from Hu et al. ([2022])]	–	–	–	–	–	Positive	–
RILRKLKKRFLK [GAN‐P2‐3]	16 µg/mL	4 µg/mL	32 µg/mL	8 µg/mL	128 µg/mL	–	–
RILRKLRKKFLK [GAN‐P2‐2]	8 µg/mL	4 µg/mL	16 µg/mL	8 µg/mL	128 µg/mL	–	–
RILRKLRKRFLK [GAN‐P2‐4]	8 µg/mL	4 µg/mL	32 µg/mL	8 µg/mL	64 µg/mL	–	–
VKRFKⓀFFRⓀFKKFV‐NH2 (sidechain bridge or staple) [LS‐BF1, lysine‐stapled AMP of the external independent data set from Hu et al. ([2022])]	–	–	–	–	–	Positive	–
VⓀRFKⓀFFRKFKKFV‐NH2 (sidechain bridge or staple) [LS‐BF2, lysine‐stapled AMP of the external independent data set from Hu et al. ([2022])]	–	–	–	–	–	Positive	–
WKRIAKRLKKKLGRAKLF [VAE‐P3‐3]	16 µg/mL	2 µg/mL	16 µg/mL	4 µg/mL	16 µg/mL	–	–
WKRIARKLKRKLGRAKLF [VAE‐P3‐5]	16 µg/mL	1 µg/mL	4 µg/mL	2 µg/mL	8 µg/mL	–	–
